Measurements as given in patent US5677327A, “Method for identifying muscarinic agents lacking miotic side effects” (priority 1995, dated 1997).
Like-named read-outs stand apart in the source and are kept apart here.

Assays:
[1] = biological target: T1, human m3 receptor subtype (Homo sapiens, UniProt P20309); test: Agonist-induced hydrolysis of inositol phospholipids (PI hydrolysis) in CHO-K1 cells expressing m3; type: cell-based; conditions: for Emax: CHO-K1, 0.5 h, read-out: MAXIMUM RESPONSE BY MUSCARINIC AGONISTS, m3 cells; for EC50: CHO-K1 m3 cells, EC50 calculated as 50% of the maximum response of the PI hydrolysis, read-out: POTENCY ON PI HYDROLYSIS, EC 50, m3 cells
T1 construct: expressed in transfected cells
Description: (§1) Chinese hamster ovary (CHO-K1) cells stably expressing the human m3 or m5 receptor subtype were grown to confluency in DMEM/F12 medium containing 10% fetal calf serum and 1 unit/ml penicillin/streptomycin in a 37° C. incubator. Activity of muscarinic agonists in these cells was determined by measuring agonist induced hydrolysis of inositol phospholipids. Confluent cells plated at 0.1×10^6 cells/well in a 24-well dish were incubated in medium containing 4 μCi/ml myo-[2-^3 H] inositol overnight. This labels the inositol phospholipids in the cells. The next morning, the cells were washed to remove excess medium and incubated for 10 minutes before and 30 minutes after the addition of various muscarinic agonists in assay buffer containing 10 mM LiCl. The hydrolysis of inositol phospholipids generates inositol phosphates which were extracted and separated on dowex-formate columns and radioactivity determined. Radioactivity of the unhydrolyzed inositol phospholipids was also determined and percent hydrolysis calculated as a measure of agonist activity.
(§2) The EC50 was calculated as 50% of the maximum response of the PI hydrolysis

[2] = biological target: T2, human m5 receptor subtype (Homo sapiens, UniProt P08912); test: Agonist-induced hydrolysis of inositol phospholipids (PI hydrolysis) in CHO-K1 cells expressing m5; type: cell-based; conditions: for Emax: CHO-K1, 0.5 h; for EC50: CHO-K1 m5 cells, EC50 calculated as 50% of the maximum response of the PI hydrolysis, read-out: POTENCY ON PI HYDROLYSIS, EC 50, m5 cells; for m3/m5 ratio: ratio of EC50 at m3 to EC50 at m5, 30 min
T2 construct: expressed in transfected cells
T2 sequence (P08912 1-532): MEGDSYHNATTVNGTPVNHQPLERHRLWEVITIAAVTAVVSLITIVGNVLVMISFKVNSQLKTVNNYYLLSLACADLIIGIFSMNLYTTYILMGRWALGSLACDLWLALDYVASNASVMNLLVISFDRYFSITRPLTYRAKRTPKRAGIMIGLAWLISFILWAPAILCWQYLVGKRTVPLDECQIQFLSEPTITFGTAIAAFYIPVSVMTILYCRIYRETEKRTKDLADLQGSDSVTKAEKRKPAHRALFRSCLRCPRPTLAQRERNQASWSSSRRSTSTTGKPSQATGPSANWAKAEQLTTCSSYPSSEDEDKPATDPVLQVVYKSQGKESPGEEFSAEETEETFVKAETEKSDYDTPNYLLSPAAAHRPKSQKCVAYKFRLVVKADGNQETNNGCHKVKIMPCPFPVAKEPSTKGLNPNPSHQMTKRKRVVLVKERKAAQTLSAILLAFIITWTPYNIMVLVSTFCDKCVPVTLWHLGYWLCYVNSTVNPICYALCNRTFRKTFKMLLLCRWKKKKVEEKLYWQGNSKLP
Description: as §1, §2

[3] = Test for lowering IOP and miosis; type: in vivo; conditions: for IOP-lowering: in vivo; for miosis: side effect when tested for lowering IOP
[4] = read-out: MAXIMUM RESPONSE BY MUSCARINIC AGONISTS, m5 cells, read-out: MAXIMUM RESPONSE BY […] AGONISTS, m5 cells

T1 sequence (P20309 whole entry): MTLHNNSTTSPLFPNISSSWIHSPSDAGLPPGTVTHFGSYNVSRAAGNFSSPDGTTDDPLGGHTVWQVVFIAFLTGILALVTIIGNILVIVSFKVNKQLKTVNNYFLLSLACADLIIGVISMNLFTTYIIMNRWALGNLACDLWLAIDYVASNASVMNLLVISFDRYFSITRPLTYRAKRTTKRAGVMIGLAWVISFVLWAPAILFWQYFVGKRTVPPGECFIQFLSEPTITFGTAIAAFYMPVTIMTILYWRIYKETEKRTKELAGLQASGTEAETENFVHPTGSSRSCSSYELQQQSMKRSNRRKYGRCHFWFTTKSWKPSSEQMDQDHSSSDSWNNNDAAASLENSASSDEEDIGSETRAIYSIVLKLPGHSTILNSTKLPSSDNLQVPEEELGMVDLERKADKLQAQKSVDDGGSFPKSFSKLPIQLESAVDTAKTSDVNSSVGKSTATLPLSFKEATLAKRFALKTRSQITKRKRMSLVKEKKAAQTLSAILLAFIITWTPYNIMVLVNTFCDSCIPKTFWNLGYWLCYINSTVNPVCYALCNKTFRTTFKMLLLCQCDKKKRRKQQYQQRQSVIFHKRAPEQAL

Emax [1]	EC50 [1]	Emax [2, 4]	Emax ([2]; read-out: hydrolysis elicited relative to carbachol at the m5 receptor)	EC50 [2]	m3/m5 ratio [2]	SMILES	IOP-lowering [3]	miosis [3]	Emax ([2]; read-out: MAXIMUM RESPONSE BY MUSCARINIC AGONISTS, m5 cells)
30 ± 3%	300 nM	30 ± 2%	30%	60 nM	5	CC(=O)N(C)C(C)C#CCN1CCCC1 (centres unmarked) [BM-5, N-Methyl-N-(1-methyl-4-pyrrolidino-2-butynyl)acetamide]	IOP-lowering	miosis	
70 ± 7%	20000 nM	84 ± 11%		5000 nM	4	CC[C@H]1C(=O)NC[C@@H]1Cc1cncn1C [AGN 190456, 3R, 4R-ethyl-[(1-methyl-1H-imidazol-5-yl)methyl]-2-pyrrolidinone]	effective	minimal miosis	

SMILES	Emax [1]	EC50 [1]	Emax [2, 4]	Emax ([2]; read-out: hydrolysis elicited relative to carbachol at the m5 receptor)	EC50 [2]	m3/m5 ratio [2]	IOP-lowering [3]	miosis [3]	Emax ([2]; read-out: MAXIMUM RESPONSE BY MUSCARINIC AGONISTS, m5 cells)
CC1CCC(=O)N1CC#CCN1CCC1 (centres unmarked) [BR-370, N-(4-Azetidinyl-2-butynyl)-5-methyl-2-pyrrolidone]	96 ± 40%	800 nM			700 nM				110 ± 8%
C[N+](C)(C)CCOC(N)=O [CARBACHOL, carbachol]			100%						
